Values quoted from earlier work as cited in US20110224120A1, “WASHING, CLEANING, POST-TREATING OR AUXILIARY WASHING AGENT CONTAINING SILVER” (Henkel AG & Co. KGaA, priority 2008, published 2011).

Details: Kanicky et al., Langmuir 2000, 16, 172-177

pKa value: 8.15
SMILES: CCCCCCCCCCCCCC(=O)O [myristic acid]
